Earlier results in patent publication US20230201369A1 (THE TEXAS A&M UNIVERSITY SYSTEM, priority 2020, published 2023).

Details: estimated

## C=CCN1CC[C@]23c4c5ccc(O)c4O[C@H]2C(=O)CC[C@@]3(O)[C@H]1C5 [naloxone, 17-Allyl-4,5α-epoxy-3,14-dihydroxymorphinan-6-one]
  oral bioavailability: 0.9-2%
